Values quoted from earlier work in patent publication US20210085711A1 (Japan Tobacco Inc., priority 2017, published 2021).

Tested on: patients
Settings: investigation up to the approval; cited from earlier work

Which “expression rate of nausea and vomiting” value does the source give for sodium ferrous citrate here?
The value was “about 13%”.
